From PMC2363406 (British Journal of Cancer, 2000)
Values joined by “and” are separate entries in the source; they are usually repeats but may differ in a detail not shown here. Identical values can stand only once. “Also recorded” adds a separate entry of the source. Counter-ions that a name gives are not always drawn. Like-named read-outs stand apart in the source and are kept apart here.

Tests used:
[1] = system: cytochrome P450; details: cited from earlier work; for metabolic interactions with paclitaxel: paclitaxel pre-medication drugs, 1995, Schlichenmyer et al; for effect on the metabolism of paclitaxel: 1997
[2] = system: HNX14C; assay: In vitro growth inhibition (SRB assay), single agents and nolatrexed/paclitaxel combination (Chou and Talalay combination index); assay type: cell-based
[3] = system: HNX22B; assay: as above; assay type: cell-based
[4] = single agent, 135 mg m-2, cited from earlier work
[5] = Clinical plasma pharmacokinetics of paclitaxel and its metabolites (HPLC, non-compartmental analysis); details: for AUC / half-life: human
[6] = Clinical plasma pharmacokinetics of nolatrexed (HPLC, non-compartmental analysis); assay type: in vivo, human; details: for half-life: human, plasma, iv, Nolatrexed Half-life; for half-life / Nolatrexed Half-life / Nolatrexed Clearance: nolatrexed 500 mg m-2 day-1 120-h i.v. infusion
[7] = biological target: T1, CYP2C8 (Homo sapiens, UniProt P10632); assay: Inhibition of paclitaxel metabolism to 6-hydroxypaclitaxel in pooled human liver microsomes; assay type: in vitro ADME
T1 construct: Pooled human liver microsomes (1 mg protein per ml) were incubated with paclitaxel; tissue Keystone Skin Bank Exton, PA, USA; host or cells: pooled human liver microsomes from ten individual livers
T1 sequence (P10632 1-490): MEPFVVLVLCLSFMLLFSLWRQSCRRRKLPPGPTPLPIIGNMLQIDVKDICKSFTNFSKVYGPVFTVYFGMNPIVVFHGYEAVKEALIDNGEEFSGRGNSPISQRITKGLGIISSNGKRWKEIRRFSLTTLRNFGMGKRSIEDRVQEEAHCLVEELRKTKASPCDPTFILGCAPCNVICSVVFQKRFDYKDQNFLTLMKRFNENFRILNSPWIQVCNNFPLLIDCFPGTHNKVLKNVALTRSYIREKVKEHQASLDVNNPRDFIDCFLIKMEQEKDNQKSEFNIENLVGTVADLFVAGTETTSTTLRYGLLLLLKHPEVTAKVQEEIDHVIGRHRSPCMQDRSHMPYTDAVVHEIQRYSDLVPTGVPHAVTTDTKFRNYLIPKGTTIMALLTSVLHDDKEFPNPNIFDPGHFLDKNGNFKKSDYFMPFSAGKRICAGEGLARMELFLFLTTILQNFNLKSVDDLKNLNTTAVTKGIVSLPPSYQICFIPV

[8] = human liver preparations and patients, ref Harris et al, 1994, Kuhn et al
[9] = in vitro studies, ref Jamis-Dow et al
[10] = 3-h paclitaxel exposure, single agent, mean (s.d.) n = 3
[11] = schedule 1, paclitaxel 80 mg m-2 3-h i.v., course 1, patients 3, 6, 9 in order
[12] = schedule 2, paclitaxel 80 mg m-2
[13] = schedule 2, paclitaxel 80 mg m-2 3-h i.v., course 1, patients 5, 7, 10 in order
[14] = schedule 1, patients 3, 6, 9 in order
[15] = schedule 2, patients 5, 7, 10 in order
[16] = schedule 3, patients 2, 4, 8 in order

Which “metabolic interactions with paclitaxel” value ([1]; ref Jamis-Dow et al) does the source give for CN/C(=N/CCSCc1nc[nH]c1C)NC#N [cimetidine] here?
Its value is “no metabolic interactions”.

With CCC1(c2ccccc2)C(=O)NC(=O)NC1=O [phenobarbitone] as the compound, how does the “effect on the metabolism of paclitaxel” value [1, 8] read?
The value was “increase the metabolism of paclitaxel”.

Which “effect on the metabolism of paclitaxel” value [1, 9] does the source give for OC(Cn1cncn1)(Cn1cncn1)c1ccc(F)cc1F [fluconazole] here?
Its value is “inhibit the metabolism of paclitaxel”.

Which “effect on the metabolism of paclitaxel” value [1, 8] does the source give for O=C1NC(=O)C(c2ccccc2)(c2ccccc2)N1 [phenytoin] here?
Its value is “increase the metabolism of paclitaxel”.

What does the source list for CC(=O)O[C@H]1C(=O)[C@@]2(C)[C@H]([C@H](OC(=O)c3ccccc3)[C@]3(O)C[C@H](OC(=O)[C@H](O)[C@@H](NC(=O)c4ccccc4)c4ccccc4)C(C)=C1C3(C)C)[C@]1(OC(C)=O)CO[C@@H]1C[C@@H]2O [paclitaxel]?
IC50 [2, 10]: 31 nM; IC50 [3, 10]: 38 nM; Paclitaxel Clearance ([4]; ref Gianni, 1995): 247 ml min-1 m-2; Paclitaxel Clearance ([4]; ref Keung, 1993): 295 ml min-1 m-2; AUC ([5]; plasma, intravenous, 80 mg, AUCs of paclitaxel, schedules 1 and 3 (except patient 8), paclitaxel 80 mg m-2): 3 to 4.85 µM·h; AUC ([5]; plasma, intravenous, 135 mg m-2, Paclitaxel AUC, patient 8, single-agent paclitaxel 135 mg m-2 as 3-h infusion, no nolatrexed): 20.6 µM·h; half-life ([5]; plasma, intravenous, 135 mg m-2, Paclitaxel Half-life, patient 8, single-agent paclitaxel 135 mg m-2 as 3-h infusion, no nolatrexed): 6 h; AUC ([5]; plasma, iv, 80 mg, Paclitaxel AUC, schedule 1, paclitaxel 80 mg m-2 3-h i.v., course 1, patients 3, 6, 9 in order): 3.78 µM·h; AUC ([5]; plasma, iv, 80 mg, Paclitaxel AUC, schedule 2, paclitaxel 80 mg m-2 3-h i.v., course 1, patients 5, 7, 10 in order): 9.42 µM·h; half-life ([5]; plasma, iv, 80 mg, Paclitaxel Half-life, schedule 1, paclitaxel 80 mg m-2 3-h i.v., course 1, patients 3, 6, 9 in order): 7.02 h; half-life ([5]; plasma, iv, 80 mg, Paclitaxel Half-life, schedule 2, paclitaxel 80 mg m-2 3-h i.v., course 1, patients 5, 7, 10 in order): 6.88 h; half-life ([5]; plasma, iv, 80 mg, Paclitaxel Half-life, schedule 3, paclitaxel 80 mg m-2 3-h i.v., course 1, patients 2, 4, 8 in order): 6.08 h; Paclitaxel Clearance ([5]; patient 8, single-agent paclitaxel 135 mg m-2 as 3-h infusion, no nolatrexed): 127 ml min-1 m-2; clearance of paclitaxel ([5]; patients on schedules 1 and 3 (with the exception of patient 8), paclitaxel 80 mg m-2): 322–520 ml min-1 m-2 and 322-520 ml min-1 m-2; Paclitaxel Clearance [5, 11]: 376 ml min-1 m-2 and 322 ml min-1 m-2 and 411 ml min-1 m-2; Paclitaxel Half-life [5, 11]: 7.37 h and 8.45 h; time above plasma paclitaxel concentration of 0.05 M ([5]; schedule 2): 16 to 27 h; time above plasma paclitaxel concentration of 0.1 M ([5]; schedule 2): 10 to 18 h; Paclitaxel Peak conc. ([5]; schedule 2 (nolatrexed 0-120 h, paclitaxel 48-51 h), paclitaxel 80 mg m-2 3-h i.v., plasma, course 1, patients 5, 7, 10 in order): 1.66-1.93 M; areas under the curve of paclitaxel [5, 12]: 392 to 565 µM/min; peak plasma concentrations of paclitaxel [5, 12]: 1.66 to 1.93 µM; Paclitaxel Clearance [5, 13]: 165–238 ml min-1 m-2 and 165 ml min-1 m-2 and 238 ml min-1 m-2 and 171 ml min-1 m-2 and 165-238 ml min-1 m-2; Paclitaxel Half-life [5, 13]: 6.35 h and 6.93 h; Paclitaxel AUC ([5]; schedule 2, paclitaxel 80 mg m-2 3-h i.v., plasma, course 1, patients 5, 7, 10 in order): 392 to 565 M/min; Paclitaxel Half-life ([5]; schedule 3, paclitaxel 80 mg m-2 3-h i.v., course 1, patients 2, 4, 8 in order): 8.42 h and 6.35 h; time above plasma paclitaxel concentration of 0.05 M ([5]; schedules 1 and 3): 8 to 18 h; time above plasma paclitaxel concentration of 0.1 M ([5]; schedules 1 and 3): 5 to 8 h; peak plasma concentrations of paclitaxel ([5]; schedules 1 and 3 (except patient 8), paclitaxel 80 mg m-2): 860000 to 1.32e+06 µM

For CN(C)CCC(c1ccc(Cl)cc1)c1ccccn1 (stereo not drawn) [chlorpheniramine], which “metabolic interactions with paclitaxel” value ([1]; ref Jamis-Dow et al) is on record?
Its value is “no metabolic interactions”.

For C[C@@H]1C[C@H]2[C@@H]3CCC4=CC(=O)C=C[C@]4(C)[C@@]3(F)[C@@H](O)C[C@]2(C)[C@@]1(O)C(=O)CO [dexamethasone], which “metabolic interactions with paclitaxel” value ([1]; ref Jamis-Dow et al) is on record?
Its value is “no metabolic interactions”.

Which IC50 ([2]; 120 h) does the source give for Cc1ccc2nc(N)[nH]c(=O)c2c1Sc1ccncc1 [nolatrexed, 3,4-dihydro-2-amino-6-methyl-4-oxo-5-(4-pyridylthio)-quinazolone dihydrochloride] here?
Its IC50 is 1120 nM.

What about the IC50 ([3]; 120 h) of the same compound?
Its IC50 is 660 nM.

And the half-life [6, 14]?
The half-life was 1.1 h.

And the half-life [6, 15]?
The half-life was 1.97 h.

And the half-life [6, 16]?
Its half-life is 1.62 h.

And the “Nolatrexed Half-life” value [6, 14]?
Its value is 1.88 h and 2.13 h.

And the “Nolatrexed Clearance” value [6, 15]?
Its value is 73 ml min-1 m-2 and 108 ml min-1 m-2 and 91 ml min-1 m-2.

What about the “Nolatrexed Half-life” value [6, 15] of the same compound?
Its value is 1.58 h and 2.57 h.

And the “Nolatrexed Clearance” value [6, 16]?
Its value is 99 ml min-1 m-2 and 62 ml min-1 m-2 and 79 ml min-1 m-2.

And the “Nolatrexed Half-life” value [6, 16]?
Its value is 2.2 h and 1.9 h.

What about the “effect of schedule on the pharmacokinetics of nolatrexed” value ([6]; three schedules with paclitaxel) of the same compound?
The value was “no effect of schedule; also recorded: unaffected by schedule”.

And the “inhibition of paclitaxel metabolism” value ([7]; human liver microsomes, statement in words)?
The value was “being an inhibitor of the major routes of metabolism of paclitaxel”.

And the Ki ([7]; read-out: Ki, inhibition of metabolism of paclitaxel to its 6-hydroxy-metabolite)?
The Ki was 640 nM.

With CC(=O)N1CCN(c2ccc(OCC3COC(Cn4ccnc4)(c4ccc(Cl)cc4Cl)O3)cc2)CC1 (stereo not drawn) [ketoconazole] as the compound, how does the “effect on the metabolism of paclitaxel” value [1, 9] read?
Its value is “inhibit the metabolism of paclitaxel”.
